In US5126336A, “Antibiotic C-3 catechol-substituted cephalosporin compounds, compositions and method of use thereof” (Bristol-Myers Squibb Company, priority 1990, dated 1992):
≈ marks a conversion by molar mass, not a printed value. Where two headings read alike, the source gives them in different places.

Key:
[1] = system: Gp-Ia: Penicillin(PC)-sensitive S. aureus (5 strains); assay: MIC, two-fold serial agar dilution, Gp-Ia; type: cell-based; conditions: Staphylococcus aureus, read-out: Geometric mean of MIC
Protocol: (§1) Minimum inhibitory concentrations (MICs) of the present series of cephalosporins were determined against 32 strains of test organisms by two-fold serial agar dilution method in Mueller-Hinton agar. Geometric means of MICs were calculated against six groups of the test organisms which are classified as follows and summarized in Table 1.
Gp-Ia Penicillin(PC)-sensitive S. aureus (5 strains).

[2] = system: Gp-Ib: Penicillin(PC)-resistant S. aureus (5); assay: MIC, two-fold serial agar dilution, Gp-Ib; type: cell-based; conditions: Staphylococcus aureus, 5 strains, read-out: Geometric mean of MIC
Protocol: as §1
Gp-Ib Penicillin(PC)-resistant S. aureus (5).

[3] = system: Gn-Ia: Cephalothin(CET)-sensitive E. coli (2), Kl. pneumoniae (1) and Pr. mirabilis (2); assay: MIC, two-fold serial agar dilution, Gn-Ia; type: cell-based; conditions: 5 strains, read-out: Geometric mean of MIC
Protocol: as §1
Gn-Ia Cephalothin(CET)-sensitive E. coli (2), Kl.
pneumoniae (1) and Pr. mirabilis (2).

[4] = system: Gn-Ib: Cephalothin(CET)-resistant E. coli (3) and Kl. pneumoniae (2); assay: MIC, two-fold serial agar dilution, Gn-Ib; type: cell-based; conditions: Escherichia coli
Protocol: as §1
Gn-Ib Cephalothin(CET)-resistant E. coli (3) and Kl.

[5] = system: Gn-II: M.morganii (1), Ent. cloacae (2) and Ser. marcescens (2); assay: MIC, two-fold serial agar dilution, Gn-II; type: cell-based
Protocol: as §1
Gn-II M.morganii (1), Ent. cloacae (2) and Ser.

[6] = system: Gn-III: Ps. aeruginosa (7); assay: MIC, two-fold serial agar dilution, Gn-III; type: cell-based; conditions: Pseudomonas aeruginosa, read-out: Geometric mean of MIC
Protocol: as §1
Gn-III Ps. aeruginosa (7).

E. coli Juhl A15119 = assay: MIC, agar dilution; type: cell-based; conditions: Escherichia coli, JUHLA15119, 18 h; E. coli Juhl (Table 3); read-out: MIC
Protocol: as §1
(§2) In vivo antibacterial activity was determined against three bacterial infections (S. aureus Smith, E. coli Juhl and P. aeruginosa A9843A) by intramuscular administration to mice just after the bacterial challenge. PD50 values are summarized in Table 3 in comparsion with the MIC values against the corresponding organisms.
(§3) Medium; MuellerHinton agar (pH = 7.2)
(§4) Incubation temperature: 32° C., 18 hr
(§5) Inoculum size; 10^6 cells/ml

P. aeruginosa A9843A [7] = assay: MIC, agar dilution; type: cell-based; conditions: Pseudomonas aeruginosa, A9843A, 18 h
Protocol: as §1, §2, §3, §4, §5

S. aureus Smith [8] = assay: MIC, agar dilution; type: cell-based; conditions: Staphylococcus aureus, 18 h; S. aureus Smith (Table 3); read-out: MIC
Protocol: as §1, §2, §3, §4, §5

S. aureus Smith [9] = assay: In vivo antibacterial activity, S. aureus Smith infection; conditions: Staphylococcus aureus, mice, im just after bacterial challenge, read-out: PD50
Protocol: as §2

E. coli Juhl = assay: In vivo antibacterial activity, E. coli Juhl infection; conditions: Escherichia coli, mice, im just after bacterial challenge, read-out: PD50
Protocol: as §2

P. aeruginosa A9843A [10] = assay: In vivo antibacterial activity, P. aeruginosa A9843A infection; set-up: species or system mice; conditions: Pseudomonas aeruginosa, A9843A, in Mus musculus, im, read-out: PD50
Protocol: as §2

For `CC(C)(O/N=C(\C(=O)NC1C(=O)N2C(C(=O)O)=C(/C=C/Cn3ccc4cc(=O)c(O)cc-4c3)CS[C@H]12)c1csc(N)n1)C(=O)O` (stereo partly drawn) [Iv, 7-[(Z)-2-(2-Aminothiazol-4-yl)-2-(1-carboxy-1-methylethoxyimino)acetamido]-3-[(E)-3-(2,6-dihydro-7-hydroxy-6-oxo-isoquinolin-2-yl)-1-propen-1-yl]-3-cephem-4-carboxylic acid], the MIC ([1]; Mueller-Hinton agar) was 12.5 mg/L (≈ 19.1 µM), the MIC ([1]; second run) was 16 mg/L (≈ 24.4 µM) and the MIC ([2]; Mueller-Hinton agar) was 16 mg/L (≈ 24.4 µM). For the same compound, the MIC ([2]; second run) was 16 mg/L (≈ 24.4 µM), the MIC ([3]; Mueller-Hinton agar) was 0.017 mg/L (≈ 0.026 µM) and the MIC ([3]; second run) was 0.0094 mg/L (≈ 0.0144 µM). It also gave an MIC ([4]; read-out: Geometric mean of MIC, Gn-Ib, 5 strains, Mueller-Hinton agar) of 0.0072 mg/L (≈ 0.011 µM), an MIC ([4]; read-out: Geometric mean of MIC, second run, Gn-Ib, 5 strains) of 0.0083 mg/L (≈ 0.0127 µM) and an MIC ([5]; read-out: Geometric mean of MIC) of 0.076 mg/L (≈ 0.116 µM). For the same compound, the “Geometric mean of MIC” value ([5]; second run, Gn-II, 5 strains) was 0.076 mg/L, the MIC [6] was 0.11 mg/L (≈ 0.168 µM) and the MIC ([6]; second run, Gn-III, 7 strains) was 0.15 mg/L (≈ 0.229 µM). It also gave an MIC (E. coli Juhl A15119) of 0.1 mg/L (≈ 0.153 µM), an MIC (P. aeruginosa A9843A [7]) of 0.1 mg/L (≈ 0.153 µM) and an MIC (S. aureus Smith [8]) of 12.5 mg/L (≈ 19.1 µM). For the same compound, the ED50 (S. aureus Smith [9]) was 0.98 mg/kg, the ED50 (E. coli Juhl) was 0.019 mg/kg and the ED50 (P. aeruginosa A9843A [10]) was 0.17 mg/kg.
